Measurements reported in article PMC9481570, “A small molecule antagonist of SMN disrupts the interaction between SMN and RNAP II” (Nature Communications, 2022).
Several values for one entry are separate records, joined by “and”; a condition that tells them apart may be missing. Identical values can stand only once.

Tests used:
Assay in all cases: Affinity-purification and mass spectrometry (AP-MS) chemical proteomics, all proteins;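 for Difference: 200 µM free competitor with 20 µM biotin probe overnight in lysate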
Type in all cases: binding
[1] = molecular target: T1, proteins displaced from immobilized biotin-Cmpd 1 pulldowns (U2OS cell lysate) (Homo sapiens, UniProt P28370); details: GN=SMARCA1 (P28370)
T1 construct: endogenous in cells; host or cells: U2OS

[2] = molecular target: T2, proteins displaced from immobilized biotin-Cmpd 1 pulldowns (U2OS cell lysate) (Homo sapiens, UniProt P25789); details: GN=PSMA4 (P25789)
T2 construct: endogenous in cells; host or cells: U2OS

[3] = molecular target: T3, proteins displaced from immobilized biotin-Cmpd 1 pulldowns (U2OS cell lysate) (Homo sapiens, UniProt P09493); details: GN=TPM1 (H0YKX5)
T3 construct: endogenous in cells; host or cells: U2OS

[4] = molecular target: T4, proteins displaced from immobilized biotin-Cmpd 1 pulldowns (U2OS cell lysate) (Homo sapiens, UniProt P56537); details: GN=EIF6 (P56537)
T4 construct: endogenous in cells; host or cells: U2OS

[5] = molecular target: T5, proteins displaced from immobilized biotin-Cmpd 1 pulldowns (U2OS cell lysate) (Homo sapiens, UniProt P16615); details: GN=ATP2A2 (P16615)
T5 construct: endogenous in cells; host or cells: U2OS

[6] = molecular target: T6, proteins displaced from immobilized biotin-Cmpd 1 pulldowns (U2OS cell lysate) (Homo sapiens, UniProt P40939); details: GN=HADHA (P40939)
T6 construct: endogenous in cells; host or cells: U2OS

[7] = molecular target: T7, proteins displaced from immobilized biotin-Cmpd 1 pulldowns (U2OS cell lysate) (Homo sapiens, UniProt Q96HE9); details: GN=PRR11 (Q96HE9)
T7 construct: endogenous in cells; host or cells: U2OS

[8] = molecular target: T8, proteins displaced from immobilized biotin-Cmpd 1 pulldowns (U2OS cell lysate) (Homo sapiens, UniProt Q9H8H0); details: GN=NOL11 (Q9H8H0)
T8 construct: endogenous in cells; host or cells: U2OS

[9] = molecular target: T9, proteins displaced from immobilized biotin-Cmpd 1 pulldowns (U2OS cell lysate) (Homo sapiens, UniProt P19367); details: GN=HK1 (P19367)
T9 construct: endogenous in cells; host or cells: U2OS

[10] = molecular target: T10, proteins displaced from immobilized biotin-Cmpd 1 pulldowns (U2OS cell lysate) (Homo sapiens, UniProt Q9NR12); details: GN=PDLIM7 (Q9NR12)
T10 construct: endogenous in cells; host or cells: U2OS
T10 sequence (Q9NR12 whole entry): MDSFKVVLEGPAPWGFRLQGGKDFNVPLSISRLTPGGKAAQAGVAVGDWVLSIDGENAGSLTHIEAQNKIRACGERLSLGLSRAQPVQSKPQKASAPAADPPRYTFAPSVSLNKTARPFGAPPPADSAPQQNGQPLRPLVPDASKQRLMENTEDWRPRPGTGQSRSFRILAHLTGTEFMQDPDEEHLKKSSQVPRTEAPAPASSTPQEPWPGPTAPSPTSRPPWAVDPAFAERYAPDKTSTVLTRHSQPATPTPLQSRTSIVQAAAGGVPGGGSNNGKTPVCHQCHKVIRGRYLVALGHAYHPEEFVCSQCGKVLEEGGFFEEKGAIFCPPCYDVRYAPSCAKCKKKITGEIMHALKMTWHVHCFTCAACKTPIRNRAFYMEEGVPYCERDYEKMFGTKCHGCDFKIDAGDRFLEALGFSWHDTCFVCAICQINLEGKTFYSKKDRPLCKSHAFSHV

T8 sequence (Q9H8H0 whole entry): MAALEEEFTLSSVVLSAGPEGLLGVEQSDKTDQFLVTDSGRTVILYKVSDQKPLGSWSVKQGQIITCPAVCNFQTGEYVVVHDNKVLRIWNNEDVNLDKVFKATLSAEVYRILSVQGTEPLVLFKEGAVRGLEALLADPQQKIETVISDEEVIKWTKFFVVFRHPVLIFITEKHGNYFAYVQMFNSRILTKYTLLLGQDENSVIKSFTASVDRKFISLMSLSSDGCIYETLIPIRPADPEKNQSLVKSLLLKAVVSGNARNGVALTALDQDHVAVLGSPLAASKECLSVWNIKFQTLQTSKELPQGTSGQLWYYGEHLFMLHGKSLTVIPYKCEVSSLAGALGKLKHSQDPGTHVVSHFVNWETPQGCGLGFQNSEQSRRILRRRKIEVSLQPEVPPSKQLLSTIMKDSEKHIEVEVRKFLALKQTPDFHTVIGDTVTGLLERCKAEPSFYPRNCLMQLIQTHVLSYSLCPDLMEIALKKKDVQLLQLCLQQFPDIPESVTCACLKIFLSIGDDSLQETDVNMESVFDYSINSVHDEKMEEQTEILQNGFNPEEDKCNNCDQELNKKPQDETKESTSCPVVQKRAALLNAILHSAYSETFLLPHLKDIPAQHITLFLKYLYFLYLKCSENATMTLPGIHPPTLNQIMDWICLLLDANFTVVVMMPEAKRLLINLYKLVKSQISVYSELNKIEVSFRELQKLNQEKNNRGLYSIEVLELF
T2 sequence (P25789 whole entry): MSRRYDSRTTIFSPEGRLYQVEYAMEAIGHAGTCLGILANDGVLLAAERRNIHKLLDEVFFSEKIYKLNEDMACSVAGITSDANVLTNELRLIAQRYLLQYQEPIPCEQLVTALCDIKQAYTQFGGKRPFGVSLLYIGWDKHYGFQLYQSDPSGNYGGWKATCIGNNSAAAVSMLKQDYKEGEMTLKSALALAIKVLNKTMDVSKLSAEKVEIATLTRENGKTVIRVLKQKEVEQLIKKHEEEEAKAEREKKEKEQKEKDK
T5 sequence (P16615 whole entry): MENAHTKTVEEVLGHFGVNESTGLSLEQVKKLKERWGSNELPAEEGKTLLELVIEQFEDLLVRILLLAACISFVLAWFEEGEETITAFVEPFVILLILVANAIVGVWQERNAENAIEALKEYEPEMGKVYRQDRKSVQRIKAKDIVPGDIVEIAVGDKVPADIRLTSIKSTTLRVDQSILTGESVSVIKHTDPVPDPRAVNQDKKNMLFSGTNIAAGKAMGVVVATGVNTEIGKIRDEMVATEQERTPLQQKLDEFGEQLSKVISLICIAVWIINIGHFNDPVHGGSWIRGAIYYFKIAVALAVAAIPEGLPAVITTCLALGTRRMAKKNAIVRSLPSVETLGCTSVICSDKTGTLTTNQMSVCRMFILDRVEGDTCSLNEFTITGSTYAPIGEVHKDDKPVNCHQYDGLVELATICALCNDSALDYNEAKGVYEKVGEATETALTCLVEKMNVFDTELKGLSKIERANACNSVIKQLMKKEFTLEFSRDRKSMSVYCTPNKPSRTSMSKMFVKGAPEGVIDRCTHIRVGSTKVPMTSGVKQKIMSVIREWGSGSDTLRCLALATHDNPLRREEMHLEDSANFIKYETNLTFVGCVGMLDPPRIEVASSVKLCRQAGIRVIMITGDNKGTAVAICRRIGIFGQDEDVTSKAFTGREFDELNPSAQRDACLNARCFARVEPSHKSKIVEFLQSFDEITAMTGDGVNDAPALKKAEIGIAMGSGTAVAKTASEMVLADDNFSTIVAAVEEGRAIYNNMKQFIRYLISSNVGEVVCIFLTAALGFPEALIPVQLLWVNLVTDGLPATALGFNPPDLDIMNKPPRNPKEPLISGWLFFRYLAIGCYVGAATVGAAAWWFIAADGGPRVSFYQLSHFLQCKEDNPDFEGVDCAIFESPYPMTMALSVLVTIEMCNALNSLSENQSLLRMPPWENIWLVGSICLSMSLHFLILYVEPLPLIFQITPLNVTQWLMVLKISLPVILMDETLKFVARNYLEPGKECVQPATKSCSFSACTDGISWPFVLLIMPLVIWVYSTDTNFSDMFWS
T1 sequence (P28370 whole entry): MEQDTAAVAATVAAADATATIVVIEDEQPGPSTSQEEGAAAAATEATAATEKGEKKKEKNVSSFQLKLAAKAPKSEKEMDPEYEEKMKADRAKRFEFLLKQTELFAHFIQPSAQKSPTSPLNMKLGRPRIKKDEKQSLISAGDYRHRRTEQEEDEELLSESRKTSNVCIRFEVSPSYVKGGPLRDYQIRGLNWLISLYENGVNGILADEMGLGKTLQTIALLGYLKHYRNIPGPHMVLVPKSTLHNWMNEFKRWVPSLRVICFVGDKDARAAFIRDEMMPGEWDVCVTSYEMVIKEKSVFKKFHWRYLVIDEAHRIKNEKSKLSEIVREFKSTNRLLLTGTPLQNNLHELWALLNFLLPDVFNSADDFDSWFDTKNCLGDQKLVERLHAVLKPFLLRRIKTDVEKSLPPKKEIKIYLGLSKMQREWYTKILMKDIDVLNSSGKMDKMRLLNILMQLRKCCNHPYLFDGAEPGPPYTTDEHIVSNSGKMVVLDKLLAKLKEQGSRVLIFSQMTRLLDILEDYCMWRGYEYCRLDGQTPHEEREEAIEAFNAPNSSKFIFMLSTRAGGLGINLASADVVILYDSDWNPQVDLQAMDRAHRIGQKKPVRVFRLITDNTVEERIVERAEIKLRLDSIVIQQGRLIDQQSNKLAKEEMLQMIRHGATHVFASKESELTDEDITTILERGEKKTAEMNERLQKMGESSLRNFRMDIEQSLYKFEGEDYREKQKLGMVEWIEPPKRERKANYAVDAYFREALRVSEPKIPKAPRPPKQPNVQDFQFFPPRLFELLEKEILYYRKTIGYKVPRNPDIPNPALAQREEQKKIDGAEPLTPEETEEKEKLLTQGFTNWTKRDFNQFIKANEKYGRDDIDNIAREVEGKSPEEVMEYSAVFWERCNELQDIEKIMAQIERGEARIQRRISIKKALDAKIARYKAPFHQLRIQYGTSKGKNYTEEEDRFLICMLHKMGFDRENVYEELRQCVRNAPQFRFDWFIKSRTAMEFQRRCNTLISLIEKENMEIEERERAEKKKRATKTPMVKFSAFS
T3 sequence (P09493 whole entry): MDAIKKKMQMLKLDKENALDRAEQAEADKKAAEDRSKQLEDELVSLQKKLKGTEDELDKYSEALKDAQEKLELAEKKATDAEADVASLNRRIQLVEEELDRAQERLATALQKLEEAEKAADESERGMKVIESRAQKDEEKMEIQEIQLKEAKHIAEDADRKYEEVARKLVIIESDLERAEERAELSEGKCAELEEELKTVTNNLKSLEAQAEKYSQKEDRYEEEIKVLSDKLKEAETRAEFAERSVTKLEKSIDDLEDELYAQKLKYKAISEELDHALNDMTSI
T9 sequence (P19367 whole entry): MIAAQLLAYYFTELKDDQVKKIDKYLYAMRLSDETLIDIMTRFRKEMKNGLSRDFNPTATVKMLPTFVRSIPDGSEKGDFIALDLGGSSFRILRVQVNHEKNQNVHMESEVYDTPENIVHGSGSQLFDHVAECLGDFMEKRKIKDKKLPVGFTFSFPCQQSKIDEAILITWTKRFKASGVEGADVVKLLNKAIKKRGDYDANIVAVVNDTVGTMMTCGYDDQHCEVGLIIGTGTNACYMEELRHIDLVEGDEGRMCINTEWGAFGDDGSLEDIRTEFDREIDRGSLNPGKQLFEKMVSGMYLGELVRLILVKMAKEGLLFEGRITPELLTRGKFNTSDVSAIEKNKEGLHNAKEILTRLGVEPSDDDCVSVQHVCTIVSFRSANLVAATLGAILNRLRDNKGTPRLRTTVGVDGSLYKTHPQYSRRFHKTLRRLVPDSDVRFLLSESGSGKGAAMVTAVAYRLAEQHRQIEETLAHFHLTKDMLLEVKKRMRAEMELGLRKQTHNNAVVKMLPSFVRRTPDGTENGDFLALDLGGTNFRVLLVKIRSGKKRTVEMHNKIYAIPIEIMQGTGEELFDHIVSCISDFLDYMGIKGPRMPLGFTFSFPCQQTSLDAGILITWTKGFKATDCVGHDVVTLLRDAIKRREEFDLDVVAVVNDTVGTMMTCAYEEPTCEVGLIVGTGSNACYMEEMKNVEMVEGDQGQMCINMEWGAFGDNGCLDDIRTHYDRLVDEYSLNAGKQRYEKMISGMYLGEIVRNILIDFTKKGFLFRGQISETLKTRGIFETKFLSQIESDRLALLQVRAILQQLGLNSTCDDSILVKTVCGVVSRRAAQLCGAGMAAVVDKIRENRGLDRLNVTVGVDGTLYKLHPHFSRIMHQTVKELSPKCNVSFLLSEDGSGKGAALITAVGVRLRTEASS

For `Cn1c2c(c(=N)c3c1CCC3)CCC2` [Compound 1, 4-methyl-2,3,4,5,6,7-hexahydrodicyclopenta[b,e]pyridin-8(1H)-imine], the Difference ([1]; Cmpd minus DMSO, -LOG(P-value) 1.24318) was 1.73, the “iBAQ Cmpd” value ([1]; replicates 1-3) was 17.0232 and 15.8844 and 17.1364 and the Difference ([2]; Cmpd minus DMSO, -LOG(P-value) 1.07686) was -2.957. The “iBAQ Cmpd” value ([2]; replicates 1-3) was 18.482 and 14.8891 and 15.1338, the Difference ([3]; Cmpd minus DMSO, -LOG(P-value) 1.96752) was -0.7334 and the “iBAQ Cmpd” value ([3]; replicates 1-3) was 21.937 and 22.2825 and 22.2241. The Difference ([4]; Cmpd minus DMSO, -LOG(P-value) 0.868477) was -1.064, the “iBAQ Cmpd” value ([4]; replicates 1-3) was 20.5029 and 19.445 and 19.2006 and the Difference ([5]; Cmpd minus DMSO, -LOG(P-value) 0.792118) was 1.325. For the same molecule, the “iBAQ Cmpd” value ([5]; replicates 1-3) was 18.9227 and 18.7034 and 17.2331, the Difference ([6]; Cmpd minus DMSO, -LOG(P-value) 0.714126) was 0.947 and the “iBAQ Cmpd” value ([6]; replicates 1-3) was 19.348 and 18.8178 and 18.412. For the same molecule, the Difference ([7]; Cmpd minus DMSO, -LOG(P-value) 0.979867) was 2.154, the “iBAQ Cmpd” value ([7]; replicates 1-3) was 17.2458 and 16.9213 and 18.1218 and the Difference ([8]; Cmpd minus DMSO, -LOG(P-value) 1.02475) was -0.9892. The “iBAQ Cmpd” value ([8]; replicates 1-3) was 17.1431 and 16.1539 and 16.3373, the Difference ([9]; Cmpd minus DMSO, -LOG(P-value) 0.855582) was 0.9514 and the “iBAQ Cmpd” value ([9]; replicates 1-3) was 18.5229 and 17.0452 and 17.0803. The Difference ([10]; Cmpd minus DMSO, -LOG(P-value) 0.715156) was 2.317 and the “iBAQ Cmpd” value ([10]; replicates 1-3) was 18.0201 and 21.1113 and 16.886.
